The results in this text go back to doi:10.1101/2025.01.28.635346v1 (bioRxiv, 2025).

Data set [1] deals with DRD1 (Homo sapiens, UniProt P21728). Put plainly: Safetyscan47 GPCR cAMP, Antagonist. In kind it is cell-based. As to conditions: for Emax: read-out: Max Response.
Data set [2] concerns the target CNR2 (Homo sapiens, UniProt P34972). Put plainly: Safetyscan47 GPCR cAMP, Agonist. In kind it is cell-based. As to conditions: for Emax: read-out: Max Response.
For data set [3], the target named is OPRK1 (Homo sapiens, UniProt P41145). Put plainly: Safetyscan47 GPCR cAMP, Antagonist. In kind it is cell-based. The conditions noted are these: for Emax: read-out: Max Response.
In data set [4] the target is T1, integrin αIIbβ3 (Homo sapiens, UniProt P05106+P08514).
T1 sequence (P08514 32-993 limits assumed): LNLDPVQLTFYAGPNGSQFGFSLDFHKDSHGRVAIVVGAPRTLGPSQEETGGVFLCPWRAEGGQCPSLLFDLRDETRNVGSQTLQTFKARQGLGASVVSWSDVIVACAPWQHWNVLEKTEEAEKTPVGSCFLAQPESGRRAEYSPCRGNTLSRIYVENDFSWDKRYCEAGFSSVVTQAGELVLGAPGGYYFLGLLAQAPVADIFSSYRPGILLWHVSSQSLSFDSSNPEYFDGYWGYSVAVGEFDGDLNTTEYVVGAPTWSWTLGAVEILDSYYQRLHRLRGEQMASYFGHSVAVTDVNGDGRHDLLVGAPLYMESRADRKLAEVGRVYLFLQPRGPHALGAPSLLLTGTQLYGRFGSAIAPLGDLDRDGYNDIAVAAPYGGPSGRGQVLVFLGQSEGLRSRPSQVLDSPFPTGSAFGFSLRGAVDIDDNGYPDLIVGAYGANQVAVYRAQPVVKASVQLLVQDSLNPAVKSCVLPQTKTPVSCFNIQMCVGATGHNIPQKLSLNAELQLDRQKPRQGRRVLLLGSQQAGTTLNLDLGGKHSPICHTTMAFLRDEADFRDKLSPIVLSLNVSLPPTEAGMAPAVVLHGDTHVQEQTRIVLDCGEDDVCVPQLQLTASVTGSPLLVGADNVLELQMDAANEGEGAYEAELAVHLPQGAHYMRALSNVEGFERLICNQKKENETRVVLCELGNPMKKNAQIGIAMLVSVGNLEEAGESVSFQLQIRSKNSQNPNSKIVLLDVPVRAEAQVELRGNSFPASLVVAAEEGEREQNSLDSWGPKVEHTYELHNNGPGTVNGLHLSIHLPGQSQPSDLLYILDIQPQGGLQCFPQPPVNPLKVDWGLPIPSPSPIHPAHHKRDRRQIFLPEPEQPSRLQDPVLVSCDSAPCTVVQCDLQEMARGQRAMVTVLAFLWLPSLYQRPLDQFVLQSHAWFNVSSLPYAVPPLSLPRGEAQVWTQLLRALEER
T1 sequence (P05106 27-718 limits assumed): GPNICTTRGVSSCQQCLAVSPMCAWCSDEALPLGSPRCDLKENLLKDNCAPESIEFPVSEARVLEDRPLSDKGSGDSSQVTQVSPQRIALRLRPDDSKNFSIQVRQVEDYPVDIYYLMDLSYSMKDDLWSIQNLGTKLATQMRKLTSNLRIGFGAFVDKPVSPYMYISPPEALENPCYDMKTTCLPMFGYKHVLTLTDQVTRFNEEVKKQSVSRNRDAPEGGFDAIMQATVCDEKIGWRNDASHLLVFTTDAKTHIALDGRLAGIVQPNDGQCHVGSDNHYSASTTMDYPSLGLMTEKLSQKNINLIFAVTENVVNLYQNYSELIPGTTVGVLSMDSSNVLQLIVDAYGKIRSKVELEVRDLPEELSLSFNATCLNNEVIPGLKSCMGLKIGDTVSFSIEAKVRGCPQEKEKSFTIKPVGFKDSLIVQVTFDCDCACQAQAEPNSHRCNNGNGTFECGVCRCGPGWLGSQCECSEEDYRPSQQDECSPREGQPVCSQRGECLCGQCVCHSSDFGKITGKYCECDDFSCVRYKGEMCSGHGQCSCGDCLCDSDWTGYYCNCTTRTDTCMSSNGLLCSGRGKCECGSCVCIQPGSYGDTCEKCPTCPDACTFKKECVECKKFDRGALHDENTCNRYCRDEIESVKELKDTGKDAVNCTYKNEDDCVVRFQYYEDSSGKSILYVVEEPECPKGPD
The data set can be described thus: ELISA competition assay, integrin αIIbβ3. In kind it is binding.

A short description of data set [5]: Plasma protein binding, rapid equilibrium dialysis, mouse plasma. The conditions noted are these: for Plasma protein binding, %Recovery: mouse plasma, RED, 2 μM, 4 h, 37°C; for fraction unbound at 4 h, 2 μM: mouse, plasma, pH 7.4. In kind it is in vitro ADME.
Data set [6] addresses CAV1.2 (Homo sapiens, UniProt Q13936). The data set can be described thus: Safetyscan47 Ion Channel, Blocker. In kind it is cell-based.
Data set [7] has as its target T2, CHRM1 (Homo sapiens, UniProt P11229).
T2 sequence (P11229 1-460): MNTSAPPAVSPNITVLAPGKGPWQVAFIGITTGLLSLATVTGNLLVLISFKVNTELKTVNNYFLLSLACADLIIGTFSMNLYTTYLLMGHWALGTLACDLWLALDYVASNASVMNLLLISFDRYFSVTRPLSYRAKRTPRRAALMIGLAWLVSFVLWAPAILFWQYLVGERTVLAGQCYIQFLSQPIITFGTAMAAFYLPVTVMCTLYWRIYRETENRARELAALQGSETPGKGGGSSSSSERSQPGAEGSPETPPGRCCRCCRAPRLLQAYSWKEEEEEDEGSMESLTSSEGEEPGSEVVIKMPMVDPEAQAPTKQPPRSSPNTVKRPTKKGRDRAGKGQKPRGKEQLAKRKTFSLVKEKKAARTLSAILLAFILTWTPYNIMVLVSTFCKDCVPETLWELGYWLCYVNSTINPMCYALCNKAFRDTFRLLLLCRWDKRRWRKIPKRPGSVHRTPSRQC
Put plainly: Safetyscan47 GPCR Calcium Flux, Agonist. In kind it is cell-based. As to conditions: for Emax: read-out: Max Response.

Data set [8] addresses nAChR(a4/b2) (Homo sapiens, UniProt P17787+P43681). Put plainly: Safetyscan47 Ion Channel, Blocker. In kind it is cell-based. The conditions noted are these: for Emax: read-out: Max Response.
Data set [9] concerns the target ADRB2 (Homo sapiens, UniProt P07550). Put plainly: Safetyscan47 GPCR cAMP, Antagonist. In kind it is cell-based. The conditions noted are these: for Emax: read-out: Max Response.
Data set [10] deals with integrin αvβ1 (Homo sapiens, UniProt P05556+P06756). The data set can be described thus: ELISA competition assay, integrin αvβ1. In kind it is binding.
Data set [11] deals with NAV1.5 (Homo sapiens, UniProt Q14524). Put plainly: Safetyscan47 Ion Channel, Blocker. In kind it is cell-based.

Bridge positions count the residues as written; N and C are the ends. Side chains are listed from the residue outwards. Peptide text beside a SMILES is read from it. * marks the point of attachment. Butanoyl(4-(4-I-phenyl)) = O=C(CCCc1ccc(I)cc1)*; PEG2 = NCCOCCOCCC(=O)O Where only a bound is given, the exact number is not on record here.

Chain of nAChR(a4/b2) (P43681 29-627 limits assumed): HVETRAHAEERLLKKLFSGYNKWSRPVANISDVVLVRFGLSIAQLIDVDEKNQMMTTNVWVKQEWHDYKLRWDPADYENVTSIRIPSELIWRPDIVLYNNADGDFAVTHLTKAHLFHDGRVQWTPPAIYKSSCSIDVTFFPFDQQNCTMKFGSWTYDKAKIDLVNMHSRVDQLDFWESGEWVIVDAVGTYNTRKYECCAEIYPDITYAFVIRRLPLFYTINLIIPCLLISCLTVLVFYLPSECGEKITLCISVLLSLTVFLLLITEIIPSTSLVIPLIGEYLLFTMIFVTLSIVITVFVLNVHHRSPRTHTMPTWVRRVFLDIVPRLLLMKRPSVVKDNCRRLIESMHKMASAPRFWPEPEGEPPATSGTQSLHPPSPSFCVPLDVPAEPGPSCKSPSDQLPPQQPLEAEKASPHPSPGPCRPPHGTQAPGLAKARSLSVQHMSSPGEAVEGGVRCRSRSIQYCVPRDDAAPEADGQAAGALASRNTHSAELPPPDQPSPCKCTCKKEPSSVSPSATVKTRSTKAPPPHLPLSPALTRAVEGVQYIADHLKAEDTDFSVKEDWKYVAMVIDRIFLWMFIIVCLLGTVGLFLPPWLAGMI
Chain of nAChR(a4/b2) (P17787 26-502): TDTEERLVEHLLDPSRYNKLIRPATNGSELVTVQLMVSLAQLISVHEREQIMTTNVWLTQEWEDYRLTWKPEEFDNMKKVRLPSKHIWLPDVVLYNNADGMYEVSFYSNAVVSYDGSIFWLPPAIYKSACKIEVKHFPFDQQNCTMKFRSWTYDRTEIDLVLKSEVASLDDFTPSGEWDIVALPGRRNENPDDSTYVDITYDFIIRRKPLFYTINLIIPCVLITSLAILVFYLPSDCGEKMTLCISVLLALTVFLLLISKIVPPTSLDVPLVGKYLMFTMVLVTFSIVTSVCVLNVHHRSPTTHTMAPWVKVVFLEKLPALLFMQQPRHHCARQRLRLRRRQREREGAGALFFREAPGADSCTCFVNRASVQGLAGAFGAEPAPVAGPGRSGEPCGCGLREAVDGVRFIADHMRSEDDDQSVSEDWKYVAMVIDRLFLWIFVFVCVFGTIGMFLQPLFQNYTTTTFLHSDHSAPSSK
Chain of CAV1.2 (Q13936 whole entry): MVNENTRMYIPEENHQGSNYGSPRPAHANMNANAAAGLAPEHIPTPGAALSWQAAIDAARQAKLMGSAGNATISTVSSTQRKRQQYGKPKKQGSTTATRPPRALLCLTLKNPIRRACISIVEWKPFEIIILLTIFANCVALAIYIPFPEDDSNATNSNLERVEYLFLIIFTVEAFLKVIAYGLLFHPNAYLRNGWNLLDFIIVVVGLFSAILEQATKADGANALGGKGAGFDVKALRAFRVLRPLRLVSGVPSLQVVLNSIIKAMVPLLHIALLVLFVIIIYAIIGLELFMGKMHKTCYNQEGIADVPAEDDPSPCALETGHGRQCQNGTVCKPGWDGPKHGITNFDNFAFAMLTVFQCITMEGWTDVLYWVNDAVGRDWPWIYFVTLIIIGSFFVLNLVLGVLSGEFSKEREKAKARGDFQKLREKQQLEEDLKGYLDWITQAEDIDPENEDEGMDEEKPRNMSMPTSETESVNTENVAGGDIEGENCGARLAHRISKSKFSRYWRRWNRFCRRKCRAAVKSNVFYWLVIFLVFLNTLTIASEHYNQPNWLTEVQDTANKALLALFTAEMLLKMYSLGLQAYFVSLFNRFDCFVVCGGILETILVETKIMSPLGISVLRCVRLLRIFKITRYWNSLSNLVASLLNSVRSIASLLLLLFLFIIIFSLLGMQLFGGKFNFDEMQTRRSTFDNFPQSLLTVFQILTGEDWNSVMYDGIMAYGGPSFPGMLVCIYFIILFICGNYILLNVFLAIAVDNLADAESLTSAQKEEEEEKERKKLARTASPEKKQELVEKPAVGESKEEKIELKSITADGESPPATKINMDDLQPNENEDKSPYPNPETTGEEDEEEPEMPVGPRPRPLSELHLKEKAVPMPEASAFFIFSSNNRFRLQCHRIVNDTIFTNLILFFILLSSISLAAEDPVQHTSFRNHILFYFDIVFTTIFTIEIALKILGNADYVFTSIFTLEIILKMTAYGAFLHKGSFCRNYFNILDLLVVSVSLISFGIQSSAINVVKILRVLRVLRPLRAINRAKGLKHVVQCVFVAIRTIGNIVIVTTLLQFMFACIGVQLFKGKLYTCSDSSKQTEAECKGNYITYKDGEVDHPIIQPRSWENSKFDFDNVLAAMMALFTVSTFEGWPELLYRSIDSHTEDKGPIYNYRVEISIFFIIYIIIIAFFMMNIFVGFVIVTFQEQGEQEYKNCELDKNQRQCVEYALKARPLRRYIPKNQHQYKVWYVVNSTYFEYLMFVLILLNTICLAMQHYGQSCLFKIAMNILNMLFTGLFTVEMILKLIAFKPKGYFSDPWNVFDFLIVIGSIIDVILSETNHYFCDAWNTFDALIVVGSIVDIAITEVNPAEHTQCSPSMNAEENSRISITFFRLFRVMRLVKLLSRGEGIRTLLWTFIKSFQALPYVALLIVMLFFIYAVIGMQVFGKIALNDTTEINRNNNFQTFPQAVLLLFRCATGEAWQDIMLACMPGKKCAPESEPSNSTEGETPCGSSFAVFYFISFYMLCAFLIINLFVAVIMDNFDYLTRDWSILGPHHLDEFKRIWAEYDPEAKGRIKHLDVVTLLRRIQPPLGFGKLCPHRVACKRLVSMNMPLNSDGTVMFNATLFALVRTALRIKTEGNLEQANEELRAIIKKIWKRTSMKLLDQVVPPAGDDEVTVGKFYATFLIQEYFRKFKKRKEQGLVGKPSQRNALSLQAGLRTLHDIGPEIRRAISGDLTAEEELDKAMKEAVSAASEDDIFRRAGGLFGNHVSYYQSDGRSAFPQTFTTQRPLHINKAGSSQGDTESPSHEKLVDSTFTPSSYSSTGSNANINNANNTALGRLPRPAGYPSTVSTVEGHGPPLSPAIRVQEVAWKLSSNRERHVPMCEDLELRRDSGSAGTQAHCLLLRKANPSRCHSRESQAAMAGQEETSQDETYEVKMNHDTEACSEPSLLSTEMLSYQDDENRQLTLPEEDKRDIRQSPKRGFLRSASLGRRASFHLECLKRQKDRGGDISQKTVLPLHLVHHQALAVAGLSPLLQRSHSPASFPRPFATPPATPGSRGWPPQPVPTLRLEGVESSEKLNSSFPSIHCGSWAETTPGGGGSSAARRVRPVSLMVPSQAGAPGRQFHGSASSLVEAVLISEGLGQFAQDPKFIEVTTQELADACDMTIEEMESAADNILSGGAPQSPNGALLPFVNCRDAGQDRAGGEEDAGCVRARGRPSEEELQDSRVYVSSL
Chain of CAV1.2 (Q08289 whole entry partner): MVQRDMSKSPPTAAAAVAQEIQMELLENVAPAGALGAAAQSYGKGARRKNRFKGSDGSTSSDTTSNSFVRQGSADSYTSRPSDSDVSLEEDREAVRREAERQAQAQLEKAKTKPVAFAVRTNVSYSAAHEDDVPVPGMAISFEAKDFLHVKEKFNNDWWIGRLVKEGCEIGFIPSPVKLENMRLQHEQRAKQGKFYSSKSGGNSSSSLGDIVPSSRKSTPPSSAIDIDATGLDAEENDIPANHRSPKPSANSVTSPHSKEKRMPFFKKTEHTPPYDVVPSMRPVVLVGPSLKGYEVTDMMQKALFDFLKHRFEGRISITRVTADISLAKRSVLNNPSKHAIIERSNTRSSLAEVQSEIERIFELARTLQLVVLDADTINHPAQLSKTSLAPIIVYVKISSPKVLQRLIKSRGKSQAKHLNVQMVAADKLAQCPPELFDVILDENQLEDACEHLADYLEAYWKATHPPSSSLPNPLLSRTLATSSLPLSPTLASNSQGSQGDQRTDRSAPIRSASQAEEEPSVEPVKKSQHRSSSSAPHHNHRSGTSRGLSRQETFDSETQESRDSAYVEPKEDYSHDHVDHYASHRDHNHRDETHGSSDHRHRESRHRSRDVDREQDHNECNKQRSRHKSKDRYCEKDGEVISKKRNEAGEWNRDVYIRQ
Chain of CAV1.2 (P54289 25-1103 partner): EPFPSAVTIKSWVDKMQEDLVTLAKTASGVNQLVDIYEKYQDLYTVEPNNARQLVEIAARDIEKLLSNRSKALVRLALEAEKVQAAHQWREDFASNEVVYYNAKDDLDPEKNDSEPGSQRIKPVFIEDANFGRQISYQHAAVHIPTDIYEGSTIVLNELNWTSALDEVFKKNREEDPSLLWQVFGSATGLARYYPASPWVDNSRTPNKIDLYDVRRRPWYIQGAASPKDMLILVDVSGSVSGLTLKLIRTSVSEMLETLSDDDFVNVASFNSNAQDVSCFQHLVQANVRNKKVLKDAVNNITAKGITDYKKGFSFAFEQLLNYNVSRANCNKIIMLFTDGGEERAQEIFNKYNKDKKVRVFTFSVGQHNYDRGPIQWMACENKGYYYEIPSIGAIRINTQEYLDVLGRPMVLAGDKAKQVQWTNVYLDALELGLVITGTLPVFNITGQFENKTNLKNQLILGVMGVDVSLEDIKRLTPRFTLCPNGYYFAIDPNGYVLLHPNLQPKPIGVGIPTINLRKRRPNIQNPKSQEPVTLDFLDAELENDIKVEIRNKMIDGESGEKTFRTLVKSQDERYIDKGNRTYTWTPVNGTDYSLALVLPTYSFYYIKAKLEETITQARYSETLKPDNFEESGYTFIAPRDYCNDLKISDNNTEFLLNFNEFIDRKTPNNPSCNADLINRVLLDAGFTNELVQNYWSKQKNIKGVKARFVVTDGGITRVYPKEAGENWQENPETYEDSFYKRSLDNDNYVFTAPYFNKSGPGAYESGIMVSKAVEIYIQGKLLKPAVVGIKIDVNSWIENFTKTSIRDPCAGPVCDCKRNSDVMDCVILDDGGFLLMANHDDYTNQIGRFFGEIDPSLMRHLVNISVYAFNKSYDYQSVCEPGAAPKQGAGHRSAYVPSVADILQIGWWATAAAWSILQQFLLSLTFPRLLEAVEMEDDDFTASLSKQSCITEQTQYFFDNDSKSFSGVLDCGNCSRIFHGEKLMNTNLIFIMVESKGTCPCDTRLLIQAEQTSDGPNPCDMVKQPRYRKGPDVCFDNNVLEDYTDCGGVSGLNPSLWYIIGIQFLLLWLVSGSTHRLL

As for `CC[C@H](C)[C@H](NC(=O)[C@H](CC(C)C)NC(=O)[C@H](CC(=O)O)NC(=O)CNC(=O)[C@H](CCCNC(=N)N)NC(=O)[C@@H](NC(=O)[C@H](Cc1ccccc1)NC(=O)[C@H](Cc1ccc(O)cc1)NC(=O)[C@@H]1CCC(=O)NCC(=O)NCC(=O)N[C@@H](CCCNC(=N)N)C(=O)NCC(=O)N[C@@H](Cc2c[nH]cn2)C(=O)N[C@@H](C(C)C)C(=O)N2CCC[C@H]2C(=O)N1)C(C)C)C(=O)N[C@@H](CO)C(=O)N[C@@H](Cc1ccccc1)C(=O)N[C@@H](Cc1ccc(O)cc1)C(=O)N[C@@H](CCCCN)C(=O)O` [lassotide 36] (GGRGHVPEYFVRGDLISFYK-OH; lactam N-8), the IC50 in [1] was more than 45 µM; in data set [3], more than 45 µM; in data set [4], 0.332 µM; in [6], more than 45 µM; in data set [8], more than 45 µM; in data set [9], more than 45 µM. Besides, the 50% inhibitory concentration (IC50) in data set [10] is 0.084 µM; in data set [11] it was more than 45 µM. The Emax in data set [1] turned out to be 11.1%; in data set [2] it was 6.08%; in data set [3], 0%; in [6] it was 0%; in data set [7], 0.34%; in data set [8], 2.98%. The figures for the Emax in data set [9] and in [11] were 8.93% and 39.5%, respectively. Further, the concentration giving a half-maximal response (EC50) in data set [2] and in data set [7] was more than 45 µM throughout. Besides, in data set [5], the “Plasma protein binding, %Recovery” value is given as 91%. Moreover, the fraction unbound at 4 h, 2 μM in [5] was 0.222.

Regarding `CC[C@H](C)[C@H](NC(=O)[C@H](CC(C)C)NC(=O)[C@H](CC(=O)O)NC(=O)CNC(=O)[C@H](CCCNC(=N)N)NC(=O)[C@@H](NC(=O)[C@H](Cc1ccccc1)NC(=O)[C@H](Cc1ccc(O)cc1)NC(=O)[C@@H]1CCC(=O)NCC(=O)NCC(=O)N[C@@H](CCCNC(=N)N)C(=O)NCC(=O)N[C@@H](Cc2c[nH]cn2)C(=O)N[C@@H](C(C)C)C(=O)N2CCC[C@H]2C(=O)N1)C(C)C)C(=O)N[C@@H](CO)C(=O)N[C@@H](Cc1ccccc1)C(=O)N[C@@H](Cc1ccc(O)cc1)C(=O)N[C@@H](CCCCNC(=O)CCOCCOCCNC(=O)CCCc1ccc(I)cc1)C(=O)O` [lassotide 47] (GGRGHVPEYFVRGDLISFYK([PEG2-Butanoyl(4-(4-I-phenyl))])-OH; lactam N-8), the IC50 is more than 45 µM in data set [1]; more than 45 µM in data set [3]; 1.49 µM in [4]; more than 45 µM in [6]; more than 45 µM in [8]; more than 45 µM in data set [9]. For the same molecule, the IC50 was 1.23 µM in data set [10] and more than 45 µM in data set [11]. Also, the Emax worked out at 35.1% in [1]; 1.85% in data set [2]; 0% in data set [3]; 0% in [6]; 1.46% in data set [7]; 4.35% in data set [8]. For the same molecule, the Emax in data set [9] was 32.8%; in [11], 0%. The EC50 in [2] and in data set [7] was more than 45 µM throughout. The “Plasma protein binding, %Recovery” value in data set [5] amounted to 100%. The molecule further showed a fraction unbound at 4 h, 2 μM in data set [5] of 0.005.
